target: T1, Human CaV2.2 channels (Homo sapiens, UniProt Q00975); assay: Fluorescent assay for CaV2.2 channels using potassium depolarization to induce channel opening (FLIPR, Fluo 4); assay type: cell-based; details: read-out: Activity Category: %-Inhib (CaV2.2) @3 μM @30 mM KCl; 3 μM test compound; 30 mM KCl as printed; HEK293 cells stably expressing human CaV2.2
T1 construct: expressed in transfected cells
Excerpt: In the process, the Ca^2+ influx is quantified in the FLIPR assay with the aid of a Ca^2+-sensitive dye (type Fluo-4, Molecular Probes Europe BV, Leiden, the Netherlands) in a fluorescent imaging plate reader (FLIPR 3, Molecular Devices, Sunnyvale, USA), as described hereinafter.
Human CaV2.2 channels were stably expressed in HEK293 cells together with alpha2-delta and beta subunits of voltage gated calcium channels. In addition, an inwardly rectifying potassium channel (Kir2.3) was stably expressed in these cells to augment control of the cell membrane potential by the concentration of extracellular potassium ions. Raise of the extracellular potassium concentration leads to depolarization of the membrane potential and thus regulates the voltage dependent state of CaV2.2 channels. For preparation, cells were seeded in black poly-D-lysine coated 96-well plates (Becton Dickinson, Biocoat 4640) in 100 μL medium [500 mL DMEM/F-12 plus Glutamax (Invitrogen 31331-093) plus 5.5 mL MEM NEAA 100× (Invitrogen 11140-035) plus 50 mL FBS decomplemented (Invitrogen 10270-106) plus 200 μg/mL Geneticin (Invitrogen 10131-027) plus 50 μg/mL Hygromycin B (Invitrogen 10687-010) plus 2 μg/mL Blasticidin (anti-bl5b Invivo-Gen) plus 0.2 μg/mL Puromycin (A 11138-03)] at a cell density of 30.000 cells per well. Plates were incubated at 37° C. (5% CO2) for 20 to 23 h. On the day of experiment medium was discarded and cells were loaded with Fluo 4 by addition of 100 μL of basic assay buffer (10 mM HEPES, 1 mM KCl, 149 mM NaCl, 0.8 mM CaCl2, 1.7 mM MgCl2, 10 mM Glucose, 0.1% BSA. pH 7.4) containing 2 μM Fluo 4 (Molecular Probes; F-14201), 0.01% pluronic acid (Molecular Probes; P-6866) and 2.5 mM probenecid (Molecular Probes; P36400). Cells were incubated in the dark at 25° C. for 60 min. Then dye containing buffer was discarded and 100 μL basic (1 mM KCl) or alternative (30 mM KCl) assay buffer was added. The alternative assay buffer contained altered concentrations of KCl (30 mM) and NaCl (120 mM) and was used in order to promote the inactivated channel state. After that 25 μL of basic or alternative assay buffer with or without test compound were added and cells were incubated again in the dark at 25° C. for 15 min. Fluorescence intensity was measured on a FLIPR 3 instrument (Molecular Devices Corp., Sunnyvale, Calif.) with excitation at 480 nm and emission at 535 nm. After continuously reading fluorescence for 30 sec, 50 μL of basic assay buffer containing 210 mM KCl (NaCl omitted) were added for depolarization. Peak fluorescent signal intensity was determined and the amplitude of the peak signal, normalized to base line, was used to measure channel inhibition by test compounds.

T1 sequence (Q00975 whole entry): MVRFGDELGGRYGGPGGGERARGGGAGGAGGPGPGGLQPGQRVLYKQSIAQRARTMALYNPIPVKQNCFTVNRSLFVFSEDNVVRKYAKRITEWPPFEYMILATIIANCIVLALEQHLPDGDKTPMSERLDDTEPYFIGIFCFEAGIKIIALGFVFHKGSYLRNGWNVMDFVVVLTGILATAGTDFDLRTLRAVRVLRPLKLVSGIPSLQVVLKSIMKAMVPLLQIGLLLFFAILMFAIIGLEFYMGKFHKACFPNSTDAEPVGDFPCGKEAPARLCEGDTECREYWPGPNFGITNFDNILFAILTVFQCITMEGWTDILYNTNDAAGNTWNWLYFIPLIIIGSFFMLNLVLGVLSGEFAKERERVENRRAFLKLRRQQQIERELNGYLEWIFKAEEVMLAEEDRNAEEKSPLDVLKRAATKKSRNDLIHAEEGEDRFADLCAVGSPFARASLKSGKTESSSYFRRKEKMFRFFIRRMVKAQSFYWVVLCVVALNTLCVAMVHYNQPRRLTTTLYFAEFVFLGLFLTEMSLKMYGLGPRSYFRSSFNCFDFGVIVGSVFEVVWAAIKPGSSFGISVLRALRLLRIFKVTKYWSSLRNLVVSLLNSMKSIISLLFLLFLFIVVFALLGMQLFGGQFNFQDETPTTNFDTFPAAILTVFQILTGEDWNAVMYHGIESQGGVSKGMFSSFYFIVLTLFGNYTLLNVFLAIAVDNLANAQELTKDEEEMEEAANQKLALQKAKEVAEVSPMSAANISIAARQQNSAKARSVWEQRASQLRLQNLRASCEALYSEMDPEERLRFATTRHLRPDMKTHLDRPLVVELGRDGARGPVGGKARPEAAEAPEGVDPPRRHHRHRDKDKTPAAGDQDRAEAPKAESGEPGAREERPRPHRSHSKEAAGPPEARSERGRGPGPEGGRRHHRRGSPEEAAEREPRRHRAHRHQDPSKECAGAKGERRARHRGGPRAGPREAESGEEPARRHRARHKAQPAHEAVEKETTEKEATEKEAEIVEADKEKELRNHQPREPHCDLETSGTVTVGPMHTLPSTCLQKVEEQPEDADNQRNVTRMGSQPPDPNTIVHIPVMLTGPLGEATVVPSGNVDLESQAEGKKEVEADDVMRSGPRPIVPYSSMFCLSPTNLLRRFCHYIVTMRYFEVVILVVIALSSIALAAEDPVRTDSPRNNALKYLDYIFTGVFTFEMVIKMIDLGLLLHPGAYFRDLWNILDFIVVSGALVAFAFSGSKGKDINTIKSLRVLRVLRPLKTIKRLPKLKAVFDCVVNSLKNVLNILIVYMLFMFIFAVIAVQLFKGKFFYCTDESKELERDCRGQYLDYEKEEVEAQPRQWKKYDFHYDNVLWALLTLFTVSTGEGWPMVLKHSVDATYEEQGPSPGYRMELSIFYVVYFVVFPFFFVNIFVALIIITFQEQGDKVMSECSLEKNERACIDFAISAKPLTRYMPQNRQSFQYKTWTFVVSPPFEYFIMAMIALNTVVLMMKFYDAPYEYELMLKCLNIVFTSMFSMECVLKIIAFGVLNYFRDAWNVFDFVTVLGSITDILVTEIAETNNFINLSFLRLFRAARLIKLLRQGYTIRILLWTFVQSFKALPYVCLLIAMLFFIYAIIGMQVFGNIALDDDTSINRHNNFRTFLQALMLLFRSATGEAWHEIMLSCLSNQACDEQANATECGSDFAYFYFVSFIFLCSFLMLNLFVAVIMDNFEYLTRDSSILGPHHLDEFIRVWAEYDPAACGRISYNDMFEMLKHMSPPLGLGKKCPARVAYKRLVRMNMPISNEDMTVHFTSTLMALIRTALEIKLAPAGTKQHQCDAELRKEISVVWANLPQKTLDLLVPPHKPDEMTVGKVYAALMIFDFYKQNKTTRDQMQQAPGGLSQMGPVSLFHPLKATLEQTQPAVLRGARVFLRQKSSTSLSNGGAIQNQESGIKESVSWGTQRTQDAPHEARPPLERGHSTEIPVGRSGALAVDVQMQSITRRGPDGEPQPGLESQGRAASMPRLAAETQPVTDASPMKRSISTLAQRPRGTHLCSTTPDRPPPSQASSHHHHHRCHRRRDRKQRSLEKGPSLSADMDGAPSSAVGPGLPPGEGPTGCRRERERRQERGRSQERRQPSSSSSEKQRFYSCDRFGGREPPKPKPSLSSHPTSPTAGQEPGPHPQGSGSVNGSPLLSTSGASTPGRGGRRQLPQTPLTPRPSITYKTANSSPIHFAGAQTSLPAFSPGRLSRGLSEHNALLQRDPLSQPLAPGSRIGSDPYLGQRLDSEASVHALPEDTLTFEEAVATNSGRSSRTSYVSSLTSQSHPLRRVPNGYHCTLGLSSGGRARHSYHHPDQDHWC
T1 sequence (P54289 25-1103, further chain): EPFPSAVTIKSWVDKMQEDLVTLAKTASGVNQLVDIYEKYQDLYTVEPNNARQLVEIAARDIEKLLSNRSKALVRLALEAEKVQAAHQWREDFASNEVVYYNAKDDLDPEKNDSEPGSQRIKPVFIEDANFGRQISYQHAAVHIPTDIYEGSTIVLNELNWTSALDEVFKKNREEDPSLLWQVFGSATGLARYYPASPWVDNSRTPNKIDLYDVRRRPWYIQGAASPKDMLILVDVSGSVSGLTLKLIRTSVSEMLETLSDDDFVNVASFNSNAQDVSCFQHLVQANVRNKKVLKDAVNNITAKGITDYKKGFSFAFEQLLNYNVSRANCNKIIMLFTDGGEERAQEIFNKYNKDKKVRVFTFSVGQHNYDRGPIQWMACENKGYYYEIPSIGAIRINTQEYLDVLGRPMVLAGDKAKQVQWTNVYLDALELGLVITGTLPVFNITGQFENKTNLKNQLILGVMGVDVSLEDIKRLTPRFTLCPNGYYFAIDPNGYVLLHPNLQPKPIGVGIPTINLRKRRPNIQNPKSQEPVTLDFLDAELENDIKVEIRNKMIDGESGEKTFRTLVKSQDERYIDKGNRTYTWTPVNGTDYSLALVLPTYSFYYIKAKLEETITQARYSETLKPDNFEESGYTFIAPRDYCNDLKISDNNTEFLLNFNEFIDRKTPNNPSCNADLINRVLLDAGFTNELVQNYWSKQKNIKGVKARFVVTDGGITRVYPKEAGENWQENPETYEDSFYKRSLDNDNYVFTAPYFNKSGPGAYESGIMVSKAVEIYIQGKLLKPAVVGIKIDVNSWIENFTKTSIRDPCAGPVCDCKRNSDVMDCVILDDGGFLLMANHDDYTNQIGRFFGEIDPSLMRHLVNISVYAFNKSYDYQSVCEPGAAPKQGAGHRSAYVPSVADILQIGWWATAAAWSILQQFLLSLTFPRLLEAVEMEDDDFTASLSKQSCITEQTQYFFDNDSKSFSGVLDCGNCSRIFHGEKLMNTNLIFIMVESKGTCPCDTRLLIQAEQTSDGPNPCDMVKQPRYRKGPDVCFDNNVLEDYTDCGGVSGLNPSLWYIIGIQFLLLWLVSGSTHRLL
T1 sequence (P54284 whole entry, further chain): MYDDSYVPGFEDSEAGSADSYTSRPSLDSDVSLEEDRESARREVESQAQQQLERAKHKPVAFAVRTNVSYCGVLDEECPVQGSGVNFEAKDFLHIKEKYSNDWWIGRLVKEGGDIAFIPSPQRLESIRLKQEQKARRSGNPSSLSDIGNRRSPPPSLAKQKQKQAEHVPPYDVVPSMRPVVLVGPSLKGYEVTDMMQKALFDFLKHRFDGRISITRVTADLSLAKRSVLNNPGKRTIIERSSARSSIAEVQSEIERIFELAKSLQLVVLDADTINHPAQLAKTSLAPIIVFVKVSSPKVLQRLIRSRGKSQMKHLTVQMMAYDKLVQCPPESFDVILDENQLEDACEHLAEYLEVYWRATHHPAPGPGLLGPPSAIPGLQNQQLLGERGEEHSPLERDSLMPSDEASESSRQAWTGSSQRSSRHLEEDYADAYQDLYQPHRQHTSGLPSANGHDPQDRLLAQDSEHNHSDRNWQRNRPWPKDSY

Cc1c(-c2ccc(Cl)cc2)c(C(=O)N2CCOCC2)n(Cc2cncnc2)c1C(F)(F)F [Example 052, [3-(4-Chlorophenyl)-4-methyl-1-(pyrimidin-5-yl-methyl)-5-(trifluoromethyl)-1H-pyrrol-2-yl]-morpholin-4-yl-methanone] and Cc1c(-c2ccc(Cl)cc2)c(C(=O)N2CCOCC2)n(Cc2ncn[nH]2)c1C(F)(F)F [Example 060, [3-(4-Chlorophenyl)-4-methyl-1-(1H-[1,2,4]triazol-3-yl-methyl)-5-(trifluoromethyl)-1H-pyrrol-2-yl]-morpholin-4-yl-methanone] fall in the same range of inhibition at 3 µM: 40 to 75% for the first, 40 to 75% for the second.

Compared with Cc1c(-c2ccc(Cl)cc2)c(C(=O)N(C)CC(C)(C)C)n(-c2cnccn2)c1C(F)(F)F [Example 049, 3-(4-Chlorophenyl)-N-(2,2-dimethyl-propyl)-N,4-dimethyl-1-pyrazin-2-yl-5-(trifluoromethyl)-1H-pyrrole-2-carboxylic acid amide], Cc1noc(Cn2c(C(F)(F)F)cc(-c3ccc(Cl)cc3)c2C(=O)N(C)CC(C)(C)C)n1 [Example 011, 3-(4-Chlorophenyl)-N-(2,2-dimethyl-propyl)-N-methyl-1-[(3-methyl-[1,2,4]oxadiazol-5-yl)-methyl]-5-(trifluoromethyl)-1H-pyrrole-2-carboxylic acid amide] is higher in inhibition at 3 µM: 75 to 95% for the first, > 95% for the second.

Cc1cc(Cn2c(C(=O)N(C)C(C)C)c(-c3ccc(Cl)cc3)c(C)c2C(F)(F)F)on1 [Example 067, 3-(4-Chlorophenyl)-N-isopropyl-N,4-dimethyl-1-[(3-methyl-isoxazol-5-yl)-methyl]-5-(trifluoromethyl)-1H-pyrrole-2-carboxylic acid amide] and Cc1c(-c2ccc(Cl)cc2)c(C(=O)N(C)C(C)C)n(Cc2ncccn2)c1C(F)(F)F [Example 061, 3-(4-Chlorophenyl)-N-isopropyl-N,4-dimethyl-1-(pyrimidin-2-yl-methyl)-5-(trifluoromethyl)-1H-pyrrole-2-carboxylic acid amide] cannot be ordered by inhibition at 3 µM: > 95% for the first, > 95% for the second.

Cc1c(-c2ccc(Cl)cc2)c(C(=O)N2CCOCC2)n(Cc2nncs2)c1C(F)(F)F [Example 024, [3-(4-Chlorophenyl)-4-methyl-1-([1,3,4]thiadiazol-2-yl-methyl)-5-(trifluoromethyl)-1H-pyrrol-2-yl]-morpholin-4-yl-methanone] and Cc1c(-c2ccc(Cl)cc2)c(C(=O)N2CCOCC2)n(Cc2cn(C)nn2)c1C(F)(F)F [Example 017, [3-(4-Chlorophenyl)-4-methyl-1-[(1-methyl-1H-[1,2,3]triazol-4-yl)-methyl]-5-(trifluoromethyl)-1H-pyrrol-2-yl]-morpholin-4-yl-methanone] fall in the same range of inhibition at 3 µM: 40 to 75% for the first, 40 to 75% for the second.

First: Cc1c(-c2ccc(Cl)cc2)c(C(=O)N2CCOC(C)(C)C2)n(Cc2ncccn2)c1C(F)(F)F [Example 040, [3-(4-Chlorophenyl)-4-methyl-1-(pyrimidin-2-yl-methyl)-5-(trifluoromethyl)-1H-pyrrol-2-yl]-(2,2-dimethyl-morpholin-4-yl)-methanone]
Second: Cc1c(-c2ccc(Cl)cc2)c(C(=O)N2CCOCC2)n(Cc2ncccn2)c1C(F)(F)F [Example 047, [3-(4-Chlorophenyl)-4-methyl-1-(pyrimidin-2-yl-methyl)-5-(trifluoromethyl)-1H-pyrrol-2-yl]-morpholin-4-yl-methanone]
The inhibition at 3 µM of the first is lower: 75 to 95% for the first, > 95% for the second.

First: Cc1c(-c2ccc(Cl)cc2)c(C(=O)N2CCOCC2)n(Cc2ccc[nH]c2=O)c1C(F)(F)F [Example 053, 3-[[3-(4-Chlorophenyl)-4-methyl-2-(morpholine-4-carbonyl)-5-(trifluoromethyl)-1H-pyrrol-1-yl]-methyl]-1H-pyridin-2-one]
Second: Cc1noc(Cn2c(C(F)(F)F)cc(-c3ccc(F)cc3)c2C(=O)N(C)C(C)C)n1 [Example 065, 3-(4-Fluorophenyl)-N-isopropyl-N-methyl-1-[(3-methyl-[1,2,4]oxadiazol-5-yl)-methyl]-5-(trifluoromethyl)-1H-pyrrole-2-carboxylic acid amide]
The inhibition at 3 µM of the first is lower: 40 to 75% for the first, 75 to 95% for the second.

From patent US9802921B2, “Fluoromethyl-substituted pyrrole carboxamides iv” (Grünenthal GmbH, priority 2013, dated 2017)
